Laboratory results published in article PMC5641551, “Chemical Proteomics for Target Discovery of Head-to-Tail Cyclized Mini-Proteins” (Frontiers in Chemistry, 2017).
No end group written: not given here.

System: 14-3-3 proteins / 25 kDa protein band in murine splenocyte lysates
Assay: photo-affinity pull down, splenocyte lysate, with competitors
Format: binding, mouse
Details: competitors at 100-fold molar excess versus bait [T20K,W23Bpa]kB1, in-gel digestion and proteomics
Experimental: Splenocytes or Jurkat cells were lysed with 25 mM Tris-HCl pH 7.4, 40 mM KCl, 2.5 mM MgSO4 2.5 mM CaCl2, 2% (v/v) glycerol, 1 mM EDTA under repeated freeze-thaw cycles and 10 min sonification. All experiments were performed in buffer with 1x complete protease inhibitor cocktail (Hoffman-La Roche, Basel, Switzerland). Cell membranes and debris were pelleted for 30 min at 16,000 × g and the supernatant corresponds to the “soluble cell lysate.” Protein concentration was determined using a bicinchoninic acid assay kit (Thermo Scientific) and DTT (1 mM) was added to keep redox potential constant during binding experiments. Photo-affinity pull down samples were submitted to denaturing sodium dodecyl sulfate polyacrylamide gel electrophoresis (PAGE). For immunoblotting according to earlier published protocols (Gruber et al., [2007]; Bergmayr et al., [2013]) proteins were semi-dry transferred onto a nitrocellulose membrane 0.45 μM (Amersham Protran, GE Healthcare, Austria) using a Fast Semi-dry blotter (Bio-Rad) at 0.25 mA per gel for 1 h. Primary rabbit anti-GFP antibody (1:5,000) was from Invitrogen (A6455), rabbit anti-GST antibody (1:2,500) from Abcam (ab9085), and mouse anti-human calcineurin subunit A antibody (1:2,000) clone BE2.1 from eBioscience. Secondary ECL anti-mouse (NA931V) or ECL anti-rabbit (NA934VS) IgG antibodies (1:10,000) were conjugated with horse radish peroxidase (GE Healthcare). Chemo-luminescence signals were detected on an imaging system FluorChem HD2 (Alpha Innotech, CA, United States). For silver staining protein gels were treated immediately after electrophoresis with fixing solution EtOH/ddH2O/acetic acid 50/40/10% (v/v/v) for 20 min. Gels had to be washed acid free, first with 50% (v/v) EtOH for 10 min and with ddH2O for 2 h. Gels were exposed to sensitization buffer 0.025% Na2S2O3 in ddH2O for 3 min, followed by 2 min wash with ddH2O. Gels were silver loaded using a 0.15% AgNO3 solution for 45 min in the dark. The protein bands were stained in development buffer formaldehyde/Na2CO3 0.04/2% (v/w) under rigorous shaking. The reaction was quenched with 5% (v/v) acetic acid solution and the gels were stored until further processing in the stopping buffer at 4°C. Pixel quantification was carried out using ImageJ v1.47 (National Institute for Health).
Biotin-LC-LC-labeled (ThermoFisher) peptides (1–5 nmoles) with or without (non-biotinylated) competitor (20–100-fold molar excess) were incubated with Jurkat cell or murine splenocyte cell lysates (150–500 μg proteins) for 2 h at 4°C in the presence of protease inhibitors. UV-activation of photo-crosslinking moiety benzophenone was induced by irradiation at 360 nm on ice for 15 min (Stratalinker, Stratagene, CA, United States). […]

CGETCVGGTCNTPGCKCSWPVCTRNGLPV (also: bicyclic or more (positions not given here)) [[T20K]kB1, synthetic cyclotide drug candidate, Thr20 to Lys mutant of kalata B1]
competition effect for 14-3-3 proteins (order): competition effect in the order [T20K]kB1 < [T20K,W23Bpa]kB1 < R18
